Measured values reported in publication PMC7587356, “High-Throughput Screening for Inhibitors of the SARS-CoV-2 Protease Using a FRET-Biosensor” (Molecules, 2020).
Counter-ions that a name gives are not always drawn. Like-named read-outs stand apart in the source and are kept apart here.

Experiments:
[1] = target: T1, SARS-CoV-2 3CLpro (Severe acute respiratory syndrome coronavirus 2, UniProt P0DTD1); experiment: biochemical; format: biochemical
[2] = target: T1, SARS-CoV-2 3CLpro; experiment: biochemical; format: biochemical; set-up: Replicate_1 / Replicate_2 / mean / mean (LOPAC_screen_w_protease): unit not given here; settings: for inhibition at 5 µM: 4 h; for mean (LOPAC_screen_w_protease) / Replicate_1 (LOPAC_screen_w_protease) / Replicate_2 (LOPAC_screen_w_protease): LOPAC1280 primary screen with protease, 5 µM compound
[3] = with 0.01% Triton X-100; mean ± SD of triplicate; 4 h, 30 °C; read-out: A) EC50 with Triton X-100
[4] = without Triton X-100; mean ± SD of triplicate; 4 h, 30 °C; read-out: B) EC50 without Triton X-100
[5] = sheet LOPAC_screen_w_protease, primary screen of LOPAC1280 at 5 µM with protease, mean of the two replicates
[6] = sheet LOPAC_screen_w_protease, primary screen of LOPAC1280 at 5 µM with protease, replicate 1
[7] = sheet LOPAC_screen_w_protease, primary screen of LOPAC1280 at 5 µM with protease, replicate 2

N=C(N)NCCSSCCNC(=N)N [GED]
Ratio (A/B) ([1]; EC50 with Triton X-100 / EC50 without Triton X-100, ratio greater than 2 suggests aggregation-based inhibitor): 1.6
EC50 [1, 3]: 5830 ± 664 nM
EC50 [1, 4]: 3640 ± 2430 nM

Cc1ccc(S(=O)(=O)N[C@@H](Cc2ccccc2)C(=O)CCl)cc1 [TPCK, Tosyl-L-Phe chloromethyl ketone]
Ratio (A/B) [1]: 1.8
EC50 [1, 3]: 1740 ± 34 nM
EC50 ([1]; with 0.01% Triton X-100, read-out: EC50): 1740 nM
EC50 [1, 4]: 985 ± 175 nM

CC(=O)NCCc1ccc(O)c(O)c1 [N-Acetyldopamine]
Ratio (A/B) [1]: 1.8
EC50 [1, 3]: 2650 ± 550 nM
EC50 [1, 4]: 1450 ± 222 nM

C[n+]1cc2c3c(ccc2c2ccc4cc5c(cc4c21)OCO5)OCO3 [Sanguinarine]
Ratio (A/B) [1]: 0.8
EC50 [1, 3]: 1780 ± 497 nM
EC50 [1, 4]: 2240 ± 586 nM

COc1cc2ncnc(Nc3cccc(Cl)c3)c2cc1OC [Tyrphostin AG 1478]
inhibition at 5 µM ([2]; sheet LOPAC_screen_w_protease, LOPAC1280 at 5 µM, mean of two replicates, read-out: mean): 1.16%
inhibition at 5 µM ([2]; sheet LOPAC_screen_w_protease, LOPAC1280 at 5 µM, replicate 1, read-out: Replicate_1): 1.39%
inhibition at 5 µM ([2]; sheet LOPAC_screen_w_protease, LOPAC1280 at 5 µM, replicate 2, read-out: Replicate_2): 0.935%

Cc1cnc(C(=O)NCCc2ccc(S(=O)(=O)NC(=O)NC3CCCCC3)cc2)cn1 [Glipizide]
inhibition at 5 µM ([2]; read-out: Replicate_1 (LOPAC screen with protease)): 10.3%
inhibition at 5 µM ([2]; read-out: Replicate_2 (LOPAC screen with protease)): 3.17%
inhibition at 5 µM ([2]; read-out: mean (LOPAC screen with protease)): 6.73%

CN(C(=O)CCCOc1ccc2[nH]c(=O)ccc2c1)C1CCCCC1 [Cilostamide]
inhibition at 5 µM ([2]; sheet LOPAC_screen_w_protease, primary screen with protease, mean of two replicates, read-out: mean): 2.23%
inhibition at 5 µM ([2]; sheet LOPAC_screen_w_protease, primary screen with protease, replicate 1, read-out: Replicate_1): 1.11%
inhibition at 5 µM ([2]; sheet LOPAC_screen_w_protease, primary screen with protease, replicate 2, read-out: Replicate_2): 3.35%

COc1ccccc1CNCCCCCCNCCCCCCCCNCCCCCCNCc1ccccc1OC.Cl.Cl.Cl.Cl [Methoctramine tetrahydrochloride]
mean [2, 5]: 4.069
Replicate_1 [2, 6]: 5.6561
Replicate_2 [2, 7]: 2.482

Ro 8-4304
mean ([2]; sheet LOPAC_screen_w_protease, primary screen with protease, 5 µM, mean of two replicates): 0.161
Replicate_1 ([2]; sheet LOPAC_screen_w_protease, primary screen with protease, 5 µM, replicate 1): -1.418
Replicate_2 ([2]; sheet LOPAC_screen_w_protease, primary screen with protease, 5 µM, replicate 2): 1.74

CCN1CCC[C@H]1CNC(=O)c1c(OC)ccc(I)c1O [S(-)-IBZM]
mean ([2]; sheet LOPAC_screen_w_protease, primary screen with protease, mean of two replicates): 2.422
Replicate_1 ([2]; sheet LOPAC_screen_w_protease, primary screen with protease, replicate 1): 3.86
Replicate_2 ([2]; sheet LOPAC_screen_w_protease, primary screen with protease, replicate 2): 0.9843

CC(C)Cn1c(=O)n(C)c(=O)c2[nH]cnc21 [3-Isobutyl-1-methylxanthine]
mean (LOPAC_screen_w_protease) ([2]; mean of the two replicates): 2.03
Replicate_1 (LOPAC_screen_w_protease) ([2]; replicate 1): -0.07674
Replicate_2 (LOPAC_screen_w_protease) ([2]; replicate 2): 4.138

CC(C)N(CCC(C(N)=O)(c1ccccc1)c1ccccn1)C(C)C (stereo not shown) [Disopyramide phosphate]
inhibition at 5 µM ([2]; sheet LOPAC_screen_w_protease, primary screen with protease, compound at 5 µM, mean of two replicates, read-out: mean): 2.74%
inhibition at 5 µM ([2]; sheet LOPAC_screen_w_protease, primary screen with protease, compound at 5 µM, replicate 1, read-out: Replicate_1): 4.07%
inhibition at 5 µM ([2]; sheet LOPAC_screen_w_protease, primary screen with protease, compound at 5 µM, replicate 2, read-out: Replicate_2): 1.41%

COc1cc(C=C(C#N)C#N)cc(O)c1O [Tyrphostin AG 34]
mean [2, 5]: 3.625
Replicate_1 [2, 6]: 3.8503
Replicate_2 [2, 7]: 3.4006

Nc1nccc2c1ncn2[C@@H]1O[C@H](CO)[C@@H](O)[C@H]1O [3-deazaadenosine]
mean [2, 5]: 3.161
Replicate_1 [2, 6]: 4.639
Replicate_2 [2, 7]: 1.683

CN(C)c1cc2c(Nc3ccc4c(cnn4Cc4ccccc4)c3)ncnc2cn1 [GW2974]
mean (LOPAC_screen_w_protease) ([2]; mean of two replicates): 1.489
Replicate_1 (LOPAC_screen_w_protease) ([2]; replicate 1): 2.805
Replicate_2 (LOPAC_screen_w_protease) ([2]; replicate 2): 0.1722

CN(CCOc1ccc(C[C@H](Nc2ccccc2C(=O)c2ccccc2)C(=O)O)cc1)c1ccccn1 [GW1929]
mean ([2]; sheet LOPAC_screen_w_protease, LOPAC1280 at 5 µM, mean of two replicates): 1.294
Replicate_1 ([2]; sheet LOPAC_screen_w_protease, LOPAC1280 at 5 µM, replicate 1): 1.2073
Replicate_2 ([2]; sheet LOPAC_screen_w_protease, LOPAC1280 at 5 µM, replicate 2): 1.38

CC(N)C(=O)OC(C)(C)Cc1ccc(Cl)cc1 (stereo not shown) [Alaproclate hydrochloride]
inhibition at 5 µM ([2]; sheet LOPAC_screen_w_protease, primary screen of LOPAC1280 at 5 µM with protease, mean of the two replicates, read-out: mean): 3.56%
inhibition at 5 µM ([2]; sheet LOPAC_screen_w_protease, primary screen of LOPAC1280 at 5 µM with protease, replicate 1, read-out: Replicate_1): 2.81%
inhibition at 5 µM ([2]; sheet LOPAC_screen_w_protease, primary screen of LOPAC1280 at 5 µM with protease, replicate 2, read-out: Replicate_2): 4.3%
